The values below come from patent publication US20210227824A1, “METHOD OF REDUCING CROP DAMAGE” (Bayer Aktiengesellschaft, priority 2018, published 2021).

Type in all cases: in vivo
For data set [1], the system named is winter wheat, TRZAW. Kind of data set: Method A: safener seed treatment, herbicide post-emergence, visual % crop damage. Particulars: safener seed treatment 0.5 g/kg only, no herbicide. As for the experimental part:
(§1) For the safener seed treatment, sufficient seeds were weighed into screw top glass bottles approximately twice the volume of the seeds.
(§2) The safener (mefenpyr-diethyl, formulated as suspension concentrate (SC)) was weighed out so that the required rates (g a.i./kg seed) would be obtained, dissolved in water (1 ml water per 10 g of seeds), and added to the seeds to produce a slurry.
(§3) The bottles were capped and then placed in an overhead shaker (set at medium speed for up to 1 hour) so that the seeds were evenly coated with the slurry. The bottles were uncapped and the seeds were sown as described above.
(§4) For the seed treatment process, the blind formulation (the SC formulation without the safener mefenpyr-diethyl) was used as seed treatment as described above.
Post-emergence application of the herbicide was done when the plants had reached growth stage BBCH11.
(§5) After application, the test plants were kept in the greenhouse under good growth conditions.
(§6) Values in the table below are mean values from at least 3 replicates.

In data set [2] the test system is winter wheat, TRZAW. The data set can be described thus: Method D: safener seed treatment, herbicide and safener tank mix pre-emergence, visual % crop damage. The method, then: as §1, §2, §3, §4
(§7) The combination of herbicide and safener was applied as a tank mix.
as §5, §6

Data set [3] deals with winter wheat, TRZAW. Kind of data set: Method C: safener seed treatment, herbicide and safener tank mix post-emergence, visual % crop damage. As for the experimental part:
as §1, §2, §3, §4
Post-emergence application was done when the plants had reached growth stage BBCH11.
The safener (mefenpyr-diethyl) was formulated as wettable powder (WP).
as §7, §5, §6

Where [4] appears, read: safener seed treatment 0.5 g/kg only, no herbicide.

Each structure is given as a SMILES string.

Turning to `CCOC(=O)C1=NN(c2ccc(Cl)cc2Cl)C(C)(C(=O)OCC)C1` (centres unmarked) [Safener seed treatment, ethyl 1-(2,4-dichlorophenyl)-5-(ethoxycarbonyl)-5-methyl-2-pyrazoline-3-carboxylate], the “% crop damage” value with winter wheat, TRZAW [1] stood at 0%; with winter wheat, TRZAW [2] (safener 200 g/ha in tank mix only, pre-emergence, 14 days after application), 5%; in the data set on winter wheat, TRZAW [2] (setting [4]) it was 2%; with winter wheat, TRZAW [3] (safener 200 g/ha in tank mix only, post-emergence, 14 days after application) it was 5%; in the data set with winter wheat, TRZAW [3] (setting [4]), 0%.
